Where two headings read alike, the source gives them in different places.
Tests used:
ICAM-1 = test: Inhibition of cytokine-induced ICAM-1 expression in proliferating HUVEC (cell-surface ELISA); format: cell-based, human
Protocol: (§1) Plate proliferating human umbilical vein endothelial cells (HUVEC) or human aortic smooth muscle cells (HASMC) from Clonetics (San Diego, CA) onto 96-well plates in 100 µL medium per well at 20,000 cells per cm^2. Maintain the cultures in growth medium (EGM or SMGM2, Clonetics, San Diego, CA) for two days prior to addition of cytokines or drugs. Add cytokines plus or minus compounds for 20 to 24 hours prior to analysis for adhesion molecule levels. Add tumor necrosis factor (Genzyme, Cambridge, MA) to cultures at 500-1000 units/mL to stimulate adhesion molecule expression. Add interleukin-4 (GIBCO-BRL, Gaithersburg, MD) to cultures at 100-200 pg/mL to stimulate VCAM-1 expression. […] Remove the culture medium, and wash the monolayers twice with Hanks buffered saline solution (HBSS) at room temperature. Add the primary antibody (anti-human VCAM-1 from Upstate Biotechnology, Inc., Lake Placid, NY or anti-human ICAM-1 from Immunotech, Inc., Westbrook, ME) to each well (1 µg/mL in HBSS plus 5% newborn calf serum, GIBCO-BRL, Gaithersburg, MD) and incubate at 37°C for 1 hr. Wash the wells twice with HBSS, then add 100 µL of a 1/1000 dilution of goat anti-mouse IgG conjugated to horse radish peroxidase (BioRad, Hercules, CA) in HBSS plus 5% newborn calf serum to each well and incubated for 1 hr at 37°C. Wash the wells three times with HBSS, then add 100 µL of TMB substrate (BioRad, Hercules, CA) to each well. Stop the reaction after blue color develops by addition of 50 µL of 1 N H2SO4. Measure absorbance at 450 nm with a plate reader.
The IC50 value is defined as the drug concentration that inhibits the cytokine-induced adhesion molecule expression by 50%. Maximal values for adhesion molecule expression in cytokine-induced cultures was subtracted from the basal level of adhesion molecule expression (minus cytokines) in the cultures to detoermine the level of induction. Each drug concentration was tested in quadruplicate wells. […]

[1] = In vivo screening in rats: animal parameters (food, body weight, liver weight, mortality); design: species or system Male Sprague-Dawley rats; conditions: diet 0.3% for 4 days, N = 5 rats; for mortality: deaths per group; for food: grams eaten per day per rat; for food / lw/bw / body wt.: percent of control; for lw/bw: liver weight/body weight; for body wt.: weight in grams
Description: (§2) A typical experiment consists of 4-6 groups of rats (N = 5 per group) with 1 group being a control which receives no MDL compound and the other groups being treated with 0.3% MDL compound. Some of the compounds are either repeated at 0.3% or evaluated again at the lower dose of 0.1 %. House Male Sprague-Dawley rats, 50-100 g, (Harlan Laboratories, Indianapolis, IN) in groups of 5, feeding ad libitum water and Purina Rodent chow (#5002) with or without MDL compound as a dietary admixture for 4 days. Make dietary admixtures (0.3%) by mixing 1.2 grams of an MDL compound with 400 grams of Purina rodent chow (#5002). Mix the MDL compound with approximately 50 grams of food using a mortar and pestle. This is added to the remainder of the food and mixed for 3 hours on a rotary mixer. In the morning of day 5, anesthetize non-fasted rats with carbon dioxide, and collect blood by cardiac puncture. Sacrifice rats by cervical dislocation. Record body weights and liver weights in grams. Record food consumption as grams • day^-1 • rat^-1. Deaths are recorded as mortality. Use aliquots of fresh serum for clinical chemistries, thiobarbituric acid reactive substances (TBARS) and conjugated diene measurements. Freeze aliquots of serum (∼ 0.5mL) and whole livers at -20°C for compound and metabolite concentration determination at a later time.

[2] = male, Sprague-Dawley, rat, in vivo
Description: as §2
Determine serum and liver concentrations of parent compound and the metabolites, bisphenol and diphenoquinone, by reverse phase HPLC using a Waters 990 Powerline system. Homegenize livers (1 gram samples) with 5.0mL PBS, pH 7.4, using a Polytron tissue homogenizer at setting 5 for 20-30 seconds. Extract serum or liver homogenates as follows: add 100µL of either serum or homogenate to 2.0mL diethyl ether: ethanol (3:1) while vortexing the tube. Cap the sample tubes and centrifuge for 10 min at 5°C at 3500 rpm in a Beckman GPKR centrifuge with a GH 3.7 rotor. Transfer the supematants to clean tubes and dry under N2. Reconstitute samples with 200µL of acetonitrile : hexane: 0.1 M ammonium acetate (90: 6.5 : 3.5, by vol.). Then, inject 100µL onto a Waters Deltapak C18-300 Å column, and elute with an 83% acetonitrile : 17% water mobile phase at a flow rate of 1.5mL/min. Record absorbances at the wavelengths of 240, 254, and 420nm. Calculate compound concentrations from known quantities of authentic parent compounds after correction for recovery. […]. Calculate concentrations as µg/mL of serum and µg/g of liver.

[3] = In vivo screening in rats: serum clinical chemistries; design: species or system Male Sprague-Dawley rats; conditions: percent of control, diet 0.3% for 4 days, N = 5 rats; for ALT: alanine aminotransferase in serum; for ALP: alkaline phosphatase in serum; for AST: aspartate aminotransferase in serum; for GLUC: glucose in serum; for CHOL: total cholesterol in serum; for TRIG: triglycerides in serum
Description: as §2
Allow blood to clot at room temperature for 30 minutes. Obtain serum after centrifugation for 10 min at 4°C at 3000 rpm in a Beckman J-6M/E centrifuge with a JS-4.2 rotor. Analyze fresh serum by a COBAS MIRA S autoanalyzer (Roche Diagnostics) using Roche diagnostic reagents for the following clinical chemistry measurements: alkaline phosphatase (ALP, kit # 44553), alanine transaminase (ALT, kit # 42375), aspartate aminotransferase (AST, kit # 42381), total cholesterol (CHOL, kit # 44334), triglyceride (TG, kit # 44120), and glucose (GLU, kit # 44558). Calculate ALP, ALT, and AST as units/L. Calculate cholesterol, triglycerides, and glucose as mg/dL.

serum lipids [4] = test: In vivo screening in rats: TBARS assay on serum (CuSO4-initiated oxidation); design: species or system Male Sprague-Dawley rats; conditions: thiobarbituric acid reactive substances (nmoles MDA) in serum, percent of control; diet 0.3% for 4 days, N = 5 rats
Description: as §2, with “Sacrifice rats by cervical dislocation. Record body weights and liver weights in grams. Record food consumption as grams • day^-1 • rat^-1.” left out, “Use aliquots of fresh serum for clinical chemistries, thiobarbituric acid reactive substances (TBARS) and conjugated diene measurements. Freeze aliquots of serum (∼ 0.5mL) and whole livers at -20°C for compound and metabolite concentration determination at a later time.” left out
In this assay the oxidation of serum lipids is initiated with CuSO4, resulting in the formation of aldehydes, such as malondialdehyde (MDA). Upon incubation with thiobarbituric acid, the absorbance of the aldehydes can be detected at 530-540 nm. […] Measure absorbances at 540 nm using a Biotek model EL311 microplate reader. The nmoles of MDA produced are calculated from a standard curve of 0 to 10 nmoles of MDA prepared from malonaldehyde bis(dimethylacetal). […]

serum lipids [5] = test: In vivo screening in rats: conjugated diene lag phase of pooled serum; design: species or system Male Sprague-Dawley rats; conditions: mean of 2 determinations of pooled serum (N = 5), not normalized, Control = 61 min., diet 0.3% for 4 days
Description: as §2, with “Use aliquots of fresh serum for clinical chemistries, thiobarbituric acid reactive substances (TBARS) and conjugated diene measurements. Freeze aliquots of serum (∼ 0.5mL) and whole livers at -20°C for compound and metabolite concentration determination at a later time.” left out
Conjugated diene lag phase is another indicator of the oxidation of lipids. […] Measure the absorbances of all cuvettes and set the instrument baseline to zero using the lowest absorbing sample. […] Record the absorbance of each cuvette at 2 min intervals for a period of 840 min. […]

VCAM-1 = test: Inhibition of cytokine-induced VCAM-1 expression in proliferating HUVEC (cell-surface ELISA); format: cell-based; conditions: Homo sapiens, coincubated with tumor necrosis factor-alpha and compound for 20 hr, average of two runs
Protocol: as §1, with “Wash the wells three times with HBSS, then add 100 µL of TMB substrate (BioRad, Hercules, CA) to each well. Stop the reaction after blue color develops by addition of 50 µL of 1 N H2SO4.” left out, “reader. […]” for “reader.”

SMILES	IC50 (ICAM-1; Homo sapiens, 20 h, read-out: ICAM-1 IC50, HUVEC, coincubated with tumor necrosis factor-alpha and compound for 20 hr, average of two runs, except MDL 107,695 where both values are shown)	IC50 (ICAM-1; read-out: ICAM-1 IC50, coincubated with tumor necrosis factor-alpha and compound for 20 hr, average of two runs, except MDL 107,695 where both values are shown)	mortality [1]	food [1]	lw/bw [1]	body wt. [1]	Liver Parent [2]	Serum Parent [2]	ALT [3]	ALP [3]	AST [3]	GLUC [3]	CHOL [3]	TRIG [3]	TBARS (serum lipids [4])	CONJ. DIENE (serum lipids [5])	IC50 (VCAM-1)	IC50 (ICAM-1; Homo sapiens, coincubated with tumor necrosis factor-alpha and compound for 20 hr, average of two runs, except MDL 107,695 where both values are shown, read-out: ICAM-1 IC50)
CC(C)(C)c1cc(OC[Si](C)(C)c2cccs2)cc(C(C)(C)C)c1O [MDL 107,965, Phenol, 2,6-bis(1,1-dimethylethyl)-4-[(dimethyl-2-thienylsilyl)methoxy]-]	72 µM	> 100 µM	0%	84%	118%	84%	82 µg/g liver	12.6 µg/mL of serum	96%	137%	89%	86%	121%	90%	57%	273 min	–	–
CC(C)(C)c1cc(OC[Si](C)(C)c2ccco2)cc(C(C)(C)C)c1O [MDL 106,939, Phenol, 2,6-bis(1,1-dimethylethyl)-4-[(2-furanyldimethylsilyl)methoxy]-]	–	–	0%	88%	130%	92%	97.7 µg/g liver	3.3 µg/mL of serum	92%	123%	106%	83%	120%	108%	64%	391 min	13 µM	33 µM
